Experiment: xn = mol fraction of the nth substance listed

CCCCCCCCCCC + CCCCCCCCCO
viscosity [mPa·s], 100 kPa
Conditions	x1 = 0.1008	x1 = 0.2004	x1 = 0.2999	x1 = 0.3992	x1 = 0.5014	x1 = 0.5978	x1 = 0.6993	x1 = 0.7958	x1 = 0.9
293.15 K	8.362	6.114	4.688	3.479	2.709	2.208	1.803	1.531	1.326
298.15 K	6.989	5.181	4.013	3.028	2.391	1.972	1.634	1.419	1.216
303.15 K	5.885	4.422	3.464	2.653	2.124	1.777	1.529	1.296	1.117
308.15 K	4.99	3.802	3.012	2.342	1.904	1.613	1.391	1.185	1.03
313.15 K	4.264	3.291	2.636	2.084	1.718	1.5	1.271	1.09	0.956
318.15 K	3.665	2.868	2.326	1.867	1.561	1.367	1.164	1.004	0.889
323.15 K	3.17	2.503	2.066	1.685	1.461	1.249	1.07	0.928	0.826

CN1CCC[C@H]1c1cccnc1 + CC(C)=O
viscosity [mPa·s], 101 kPa
Conditions	x1 = 0.1173	x1 = 0.2498	x1 = 0.378	x1 = 0.5005	x1 = 0.6228	x1 = 0.7485	x1 = 0.8439
298.15 K	0.4615	0.6975	0.9326	1.28	1.695	2.274	2.856
308.15 K	0.4184	0.6054	0.7994	1.075	1.397	1.818	2.248
323.15 K	0.3526	0.4988	0.6476	0.8411	1.065	1.364	1.619

CCN(CC)CC(=O)Nc1c(C)cccc1C + CC(C)[C@@H]1CC[C@@H](C)C[C@H]1O
100 kPa, x2 = 0.667
Conditions	viscosity [mPa·s]
293.15 K	69.38
298.15 K	45.91
303.15 K	31.73
308.15 K	22.78
313.15 K	16.87
318.15 K	12.85
323.15 K	10.02

NC=O + CC(C)CO
308 K, 101 kPa
Conditions	viscosity [mPa·s]
x1 = 0.1092	2.344
x1 = 0.2053	2.444
x1 = 0.3677	2.574
x1 = 0.4992	2.682
x1 = 0.6079	2.757
x1 = 0.6993	2.788
x1 = 0.7772	2.782
x1 = 0.844	2.744
x1 = 0.9029	2.701

OCCCl + c1ccccc1
303.15 K, 101.33 kPa
Conditions	viscosity [mPa·s]
x2 = 0.3365	1.315
x2 = 0.4832	1.008
x2 = 0.6611	0.771
x2 = 0.849	0.613

NC=O + CC(=O)O
viscosity [mPa·s]
Conditions	298.15 K	303.15 K	308.15 K	313.15 K
101 kPa, x1 = 0.109	2.001	–	–	1.462
101 kPa, x1 = 0.2105	2.855	–	–	2.029
101 kPa, x1 = 0.3058	3.481	–	–	2.361
101 kPa, x1 = 0.4011	3.864	–	–	2.589
101 kPa, x1 = 0.5018	4.217	–	–	2.791
101 kPa, x1 = 0.5944	4.341	–	–	2.904
101 kPa, x1 = 0.7026	4.316	–	–	2.903
101 kPa, x1 = 0.7961	4.146	–	–	2.899
101 kPa, x1 = 0.9038	3.824	–	–	2.589
101.33 kPa, x1 = 0.0782	1.54	1.39	1.28	1.19
101.33 kPa, x1 = 0.1552	2.07	1.84	1.68	1.54
101.33 kPa, x1 = 0.2319	2.63	2.3	2.09	1.89
101.33 kPa, x1 = 0.3049	3.11	2.71	2.43	2.19
101.33 kPa, x1 = 0.3832	3.54	3.06	2.73	2.45
101.33 kPa, x1 = 0.4595	3.85	3.32	2.95	2.65
101.33 kPa, x1 = 0.5395	4.04	3.52	3.08	2.81
101.33 kPa, x1 = 0.6155	4.02	3.5	3.1	2.77
101.33 kPa, x1 = 0.6939	3.97	3.49	3.08	2.75
101.33 kPa, x1 = 0.7683	3.83	3.4	2.97	2.67
101.33 kPa, x1 = 0.8477	3.57	3.1	2.79	2.53
101.33 kPa, x1 = 0.9228	3.36	2.94	2.65	2.4

From the CheMixHub viscosity set
